Data taken from patent publication US8586542B2, “Small molecule apoptosis promoters” (Joyant Pharmaceuticals, Inc., priority 2006, dated 2013).
Like-named read-outs stand apart in the source and are kept apart here.

Assays:
HCC461 cells = experiment: Cell viability assay in HCC461 cells (WST-1); type: cell-based; conditions: read-out: HCC461 cell
Procedure: HCC461 cells plated in 96 well plates at 5×10^4/ml cell density are treated with 50× synthetic Smac mimetic compounds (final concentration range between 30 uM and 0.001 uM). After 48 hrs incubation at 37° C. and 5% CO2, viability of the cells are measured using Cell Proliferation Reagent WST-1 assay kit (Roche Cat #11 644 807 001).
The tetrazolium salts are cleaved to formazan by cellular enzymes. An expansion in the number of viable cells results in an increase in the overall activity of mitochondrial dehydrogenases in the samples. This augmentation in the enzyme activity leads to an increase in the amount of formazan dye formed, which directly correlates to the number of metabolically active cells in the culture. Quantification of the formazan dye produced by metabolically active cells by using a microplate (ELISA) reader at 420-480 nm.

Caspase3 in Hela S100 = experiment: In-vitro caspase-3 activation assay in Hela S100 extract; type: biochemical; conditions: 100 nM compound, Hela S100, 1 mM dATP; slope versus control (compound 1 = Caspase std.)
Procedure: Caspase3 in most cell extracts can be activated by the addition of 1 mM dATP through the mitochondria caspase pathway. […] Taking advantage of this feature, we use 100 nM of synthetic Smac mimetic compound to test its ability to eliminate IAPB in the Hela S100 and fully induce Caspase3 activity. The In Vitro Caspase3 assay is carried out at 30° C., incubating 100 nM compounds with 30 ug of Hela S100, 1 mM dATP, 10 uM Caspase3 fluorogenic substrate (Caspase3 Substrate II, Fluorogenic, #235425 from Calbiochem). The readout is caspase-3 activity represented by relative fluorogenic unit, which is recorded kinetically. The slope in linear region of the curve for each compound is calculated.
The ratio of each synthetic compound's slope versus the slope of control reflects in vitro caspase-3 activation ability of compounds.

[1] = target: T1, truncated XIAP containing only BIR1, BIR2, and BIR3 domains (Homo sapiens, UniProt P98170); experiment: Fluorescent polarization assay (Bir binding); conditions: competition with 2 nM fluorescein labeled AVPI peptide, room temperature, 1 hour
T1 construct: truncated XIAP containing only BIR1, BIR2, and BIR3 domains
Procedure: Increasing concentrations of Smac compounds are incubated with 2 nM of labeled peptide (fluorescein labeled 10 mer peptide with AVPI 4 amino acids at its N terminus-Alexa Fluor 488) and truncated XIAP containing only BIR1, BIR2, and BIR3 domains at room temperature for 1 hour. Fluorescence reading, indicative of the bound portion of the labeled peptide, is measured in milipolarization units (mP). The more compound added, less fluorescein labeled peptide bind to the protein due to the competitive binding and less fluorescence signal is released.
Based on this principle, we obtain the Ki value that evaluates compound's binding affinity.

[2] = HCC461, 48 hrs incubation, WST-1 viability

T1 sequence (P98170 1-356 limits assumed): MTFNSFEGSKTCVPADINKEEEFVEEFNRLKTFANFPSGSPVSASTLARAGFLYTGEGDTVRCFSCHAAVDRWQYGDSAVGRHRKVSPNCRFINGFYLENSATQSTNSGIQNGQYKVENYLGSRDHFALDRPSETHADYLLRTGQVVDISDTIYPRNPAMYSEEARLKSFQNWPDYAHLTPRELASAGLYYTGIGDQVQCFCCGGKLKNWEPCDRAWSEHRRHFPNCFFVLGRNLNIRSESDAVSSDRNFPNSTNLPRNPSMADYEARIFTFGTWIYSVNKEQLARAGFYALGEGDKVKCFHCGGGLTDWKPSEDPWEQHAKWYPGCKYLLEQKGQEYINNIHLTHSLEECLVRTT

Row | Compound | IC50 (HCC461 cells; [2]) [nM] | Caspase % (Caspase3 in Hela S100) [%] | Bir binding [1] [µM] | IC50 (HCC461 cells; HCC461, 48 h) [nM]
1 | CNC(C)C(=O)N[C@@H](CCCCCC[C@H](NC(=O)[C@H](C)NC)C(=O)N1CCC[C@H]1C(=O)NCc1ccccc1)C(=O)N1CCC[C@H]1C(=O)NCc1ccccc1 (some centres unmarked) [Compound 6] | 2100 | 82 | 0.2 | 
2 | CN[C@@H](C)C(=O)N[C@H](C(=O)N1CCC[C@H]1C(=O)N[C@@H]1CCCc2ccccc21)[C@@H](C)OCc1nnn2c1-c1c(CO[C@H](C)[C@H](NC(=O)[C@H](C)NC)C(=O)N3CCC[C@H]3C(=O)N[C@@H]3CCCc4ccccc43)nnn1CC2.Cl.Cl [Compound 23] | 490 | 109 | 0.13 | 
3 | CN[C@@H](C)C(=O)N[C@@H](Cc1nnn2c1-c1c(C[C@H](NC(=O)[C@H](C)NC)C(=O)N3CCC[C@H]3C(=O)N[C@@H]3CCCc4ccccc43)nnn1CCC2)C(=O)N1CCCC1C(=O)N[C@@H]1CCCc2ccccc21.Cl.Cl (some centres unmarked) [Compound 18] | 760 | 88 | 0.176 | 
4 | CN[C@@H](C)C(=O)N[C@@H](CCCCCC[C@H](NC(=O)[C@H](C)NC)C(=O)N1CCC[C@H]1C(=O)N[C@@H]1CCCc2ccccc21)C(=O)N1CCC[C@H]1C(=O)N[C@@H]1CCCc2ccccc21 [Compound 2] |  | 105 | 0.15 | 10
5 | C=C(C#CCO[C@H](C)[C@H](NC(=O)[C@H](C)NC)C(=O)N1CCC[C@H]1C(=O)N[C@@H]1CCCc2ccccc21)CO[C@H](C)[C@H](NC(=O)[C@H](C)NC)C(=O)N1CCC[C@H]1C(=O)N[C@@H]1CCCc2ccccc21.Cl.Cl [Compound 42] | 240 | 109 | 0.2 | 
6 | CN[C@@H](C)C(=O)N[C@H](C(=O)N1CCCC1)c1ccc(C#CCO[C@H](C)[C@H](NC(=O)[C@H](C)NC)C(=O)N2CCC[C@H]2C(=O)N[C@@H]2CCCc3ccccc32)cc1.Cl.Cl [Compound 40] | 30 | 85 | 0.15 | 
7 | CN[C@@H](C)C(=O)N[C@H](C(=O)N1CCCC1C(=O)N[C@@H]1CCCc2ccccc21)[C@@H](C)OCCCCCCO[C@H](C)[C@H](NC(=O)[C@H](C)NC)C(=O)N1CCC[C@H]1C(=O)N[C@@H]1CCCc2ccccc21.Cl.Cl (some centres unmarked) [Compound 14] | 620 | 104 | 0.158 | 
8 | CNC(C)C(=O)N[C@@H](CC#CC#CC[C@H](NC(=O)[C@H](C)NC)C(=O)N1CCC[C@H]1C(=O)NC(c1ccccc1)c1ccccc1)C(=O)N1CCC[C@H]1C(=O)NC(c1ccccc1)c1ccccc1 (some centres unmarked) [Compound 3] | 26 | 48 | 0.12 | 
9 | CC[C@H](NC)C(=O)N[C@@H](CC#CC#CC[C@H](NC(=O)[C@H](CC)NC)C(=O)N1CCC[C@H]1C(=O)N[C@@H]1CCCc2ccccc21)C(=O)N1CCC[C@H]1C(=O)N[C@@H]1CCCc2ccccc21 [Compound 9] | 9 | 108 | 0.196 | 
10 | CN[C@@H](C)C(=O)NC(C(=O)N[C@@H](Cc1cn(C/C=C\Cn2cc(C[C@H](NC(=O)[C@@H](NC(=O)[C@H](C)NC)C(C)(C)C)C(=O)N[C@@H]3CCCc4ccccc43)nn2)nn1)C(=O)N[C@@H]1CCCc2ccccc21)C(C)(C)C.Cl.Cl (some centres unmarked) [Compound 24] | 1400 | 81 | 1.5 | 
11 | CN[C@@H](C)C(=O)N[C@@H](CC#CC#CC[C@H](NC(=O)[C@H](C)NC)C(=O)N1CCC[C@H]1C(=O)N[C@@H]1CCCc2ccccc21)C(=O)N1CCC[C@H]1C(=O)N[C@@H]1CCCc2ccccc21 [Compound 1] |  | 100 | 0.07 | 4
12 | CC[C@H](NC)C(=O)N[C@H](C(=O)N1CCCC1)c1ccc(C#CCO[C@H](C)[C@H](NC(=O)[C@H](C)NC)C(=O)N2CCC[C@H]2C(=O)N[C@@H]2CCCc3ccccc32)cc1.Cl.Cl [Compound 37] | 200 | 59 | 0.3 | 
13 | CNC(C)C(=O)N[C@@H](CCCCCC[C@H](NC(=O)[C@H](C)NC)C(=O)N1CCC[C@H]1C(=O)NC(c1ccccc1)c1ccccc1)C(=O)N1CCC[C@H]1C(=O)NC(c1ccccc1)c1ccccc1 (some centres unmarked) [Compound 4] | 25 | 55 | 0.11 | 
14 | CC[C@H](NC)C(=O)N[C@@H](CCCCCC[C@H](NC(=O)[C@H](CC)NC)C(=O)N1CCC[C@H]1C(=O)N[C@@H]1CCCc2ccccc21)C(=O)N1CCC[C@H]1C(=O)N[C@@H]1CCCc2ccccc21 [Compound 10] | 20 | 105 | 0.2 | 
15 | CCC[C@H](NC)C(=O)N[C@@H](CC#CC#CC[C@H](NC(=O)[C@H](C)NC)C(=O)N1CCC[C@H]1C(=O)N[C@@H]1CCCc2ccccc21)C(=O)N1CCC[C@H]1C(=O)N[C@@H]1CCCc2ccccc21.Cl.Cl [Compound 15] | 80 | 87 | 0.638 | 
16 | CN[C@@H](C)C(=O)N[C@H](C(=O)N1CCC[C@H]1C(=O)N[C@@H]1CCCc2ccccc21)[C@@H](C)OCc1cn(CCn2cc(CO[C@H](C)[C@H](NC(=O)[C@H](C)NC)C(=O)N3CCC[C@H]3C(=O)N[C@@H]3CCCc4ccccc43)nn2)nn1.Cl.Cl [Compound 22] | 810 | 106 | 0.13 | 

Continued, in another order:

Row | IC50 (HCC461 cells; [2]) [nM] | Caspase % (Caspase3 in Hela S100) [%] | Bir binding [1] [µM] | Compound | IC50 (HCC461 cells; HCC461, 48 h) [nM]
17 | 50 | 98 | 0.19 | CN[C@@H](C)C(=O)N[C@@H](Cc1ccc(C#CC[C@H](NC(=O)[C@H](C)NC)C(=O)N2CCC[C@H]2C(=O)N[C@@H]2CCCc3ccccc32)cc1)C(=O)N1CCC[C@H]1C(=O)NC1CCCc2ccccc21.Cl (some centres unmarked) [Compound 36] | 
18 | 690 | 98 | 0.136 | CN[C@@H](C)C(=O)N[C@@H](Cc1cn(CCCn2cc(C[C@H](NC(=O)[C@H](C)NC)C(=O)N3CCC[C@H]3C(=O)N[C@@H]3CCCc4ccccc43)nn2)nn1)C(=O)N1CCC[C@H]1C(=O)N[C@@H]1CCCc2ccccc21.Cl.Cl [Compound 17] | 
19 | 20 | 113 | 0.19 | CN[C@@H](C)C(=O)N[C@@H](CCCCNC(=O)c1ccc(C(=O)NCCCC[C@H](NC(=O)[C@H](C)NC)C(=O)N2CCC[C@H]2C(=O)N[C@@H]2CCCc3ccccc32)cc1)C(=O)N1CCC[C@H]1C(=O)N[C@@H]1CCCc2ccccc21.Cl.Cl [Compound 49] | 
20 | 70 | 102 | 0.2 | CN[C@@H](C)C(=O)N[C@@H](CCCc1ccc([C@H](NC(=O)[C@H](C)NC)C(=O)N2CCC[C@H]2C(=O)N[C@@H]2CCCc3ccccc32)cc1)C(=O)N1CCC[C@H]1C(=O)N[C@@H]1CCCc2ccccc21 [Compound 28] | 
21 | 5 | 109 | 0.08 | CN[C@@H](C)C(=O)N[C@H](C(=O)N1CCC[C@H]1C(=O)N[C@@H]1CCCc2ccccc21)c1ccc(C#CCO[C@H](C)[C@H](NC(=O)[C@H](C)NC)C(=O)N2CCC[C@H]2C(=O)N[C@@H]2CCCc3ccccc32)cc1 [Compound 32] | 
22 | 3 | 104 | 0.18 | CN[C@@H](C)C(=O)N[C@@H](Cc1ccc(OC/C=C\COc2ccc(C[C@H](NC(=O)[C@H](C)NC)C(=O)N3CCCC3C(=O)N[C@@H]3CCCc4ccccc43)cc2)cc1)C(=O)N1CCCC1C(=O)N[C@@H]1CCCc2ccccc21.Cl.Cl (some centres unmarked) [Compound 44] | 
23 | 56 | 103 | 0.2 | CN[C@@H](C)C(=O)N[C@@H](CCCCNC(=O)NCCCC[C@H](NC(=O)[C@H](C)NC)C(=O)N1CCC[C@H]1C(=O)N[C@@H]1CCCc2ccccc21)C(=O)N1CCC[C@H]1C(=O)N[C@@H]1CCCc2ccccc21.Cl.Cl [Compound 48] | 
24 | 520 | 99 | 0.18 | CN[C@@H](C)C(=O)N[C@@H](Cc1cn(CCn2cc(C[C@H](NC(=O)[C@H](C)NC)C(=O)N3CCC[C@H]3C(=O)N[C@@H]3CCCc4ccccc43)nn2)nn1)C(=O)N1CCC[C@H]1C(=O)N[C@@H]1CCCc2ccccc21.Cl.Cl [Compound 20] | 
25 |  | 102 | 0.2 | CN[C@@H](C)C(=O)N[C@@H](CCCc1ccc([C@H](NC(=O)[C@H](C)NC)C(=O)N2CCC[C@H]2C(=O)N[C@@H]2CCCc3ccccc32)cc1)C(=O)N1CCC[C@H]1C(=O)N[C@@H]1CCCc2ccccc21.Cl.Cl [Compound 38] | 
